Here are results for 13 compounds from ChEMBL document CHEMBL1909046, “DrugMatrix in vitro pharmacology data”.

The target in one assay is D(1A) dopamine receptor (Homo sapiens, UniProt P21728). Briefly: DRUGMATRIX: Dopamine D1 radioligand binding (ligand: [3H] SCH-23390). It is filed as cell membranes, CHO, Membrane. To be noted: cho; Not Active = under 50% inhibition at 10 µM.
Assay [1] in a line: DRUGMATRIX: Imidazoline I2, Central radioligand binding (ligand: [3H] Idazoxan). It is filed as cell membranes, Rattus norvegicus, Wistar, Cerebral cortex, Membrane. To be noted: Not Active = under 50% inhibition at 10 µM.
The nature of assay [2]: DRUGMATRIX: Nicotinic Acetylcholine radioligand binding (ligand: [125I] Epibatidine). The class given is cell membranes, Membrane. Particulars: imr-32; Not Active = under 50% inhibition at 10 µM.
For assay [3], the target named is Kappa-type opioid receptor (Homo sapiens, UniProt P41145). Briefly: DRUGMATRIX: Opiate kappa (OP2, KOP) radioligand binding (ligand: [3H] Diprenorphine). It is filed as cell membranes, HEK293, Membrane. To be noted: hek293; Not Active = under 50% inhibition at 10 µM.
Kappa-type opioid receptor, sequence (P41145 whole entry): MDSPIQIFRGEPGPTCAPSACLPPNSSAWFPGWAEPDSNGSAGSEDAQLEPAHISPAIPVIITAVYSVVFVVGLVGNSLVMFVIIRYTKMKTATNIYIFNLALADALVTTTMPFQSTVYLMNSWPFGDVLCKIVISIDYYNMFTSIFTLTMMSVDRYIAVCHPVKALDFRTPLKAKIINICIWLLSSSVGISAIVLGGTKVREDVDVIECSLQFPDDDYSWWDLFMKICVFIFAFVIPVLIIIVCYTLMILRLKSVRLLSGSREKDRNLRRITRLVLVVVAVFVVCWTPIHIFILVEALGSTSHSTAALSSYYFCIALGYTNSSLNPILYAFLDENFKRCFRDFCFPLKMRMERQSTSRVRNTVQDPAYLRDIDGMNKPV
Assay [4] in a line: DRUGMATRIX: Phorbol Ester radioligand binding (ligand: [3H] PDBu). The class given is cell membranes, Mus musculus, ICR, Brain, Membrane. Particulars: Not Active = under 50% inhibition at 10 µM.
Assay [5] in a line: DRUGMATRIX: Phosphodiesterase PDE3 enzyme inhibition (substrate: [3H]cAMP + cAMP). Particulars: platelet; Not Active = under 50% inhibition at 10 µM. It is filed as tissue-based, Homo sapiens.
A short description of assay [6]: DRUGMATRIX: Platelet-Derived Growth Factor (PDGF) radioligand binding (ligand: [125I] PDGF). To be noted: nih3t3; Not Active = under 50% inhibition at 10 µM. It is filed as cell-based.

D(1A) dopamine receptor, sequence (P21728 whole entry): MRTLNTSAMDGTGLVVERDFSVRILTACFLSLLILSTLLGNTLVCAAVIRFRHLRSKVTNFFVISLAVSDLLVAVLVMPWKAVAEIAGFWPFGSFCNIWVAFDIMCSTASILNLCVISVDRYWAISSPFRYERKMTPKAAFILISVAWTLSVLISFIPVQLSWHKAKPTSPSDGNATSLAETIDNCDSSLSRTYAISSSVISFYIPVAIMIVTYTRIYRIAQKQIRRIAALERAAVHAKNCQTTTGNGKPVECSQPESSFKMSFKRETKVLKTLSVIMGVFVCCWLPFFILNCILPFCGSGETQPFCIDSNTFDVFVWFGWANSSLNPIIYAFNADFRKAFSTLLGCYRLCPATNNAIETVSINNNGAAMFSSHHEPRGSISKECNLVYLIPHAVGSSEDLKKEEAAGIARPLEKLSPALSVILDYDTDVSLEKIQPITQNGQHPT

`CCCCC(=O)N(Cc1ccc(-c2ccccc2-c2nnn[nH]2)cc1)[C@H](C(=O)O)C(C)C`: the concentration for half-maximal inhibition (IC50) entry (on D(1A) dopamine receptor; in assay [1]; in assay [2]; in assay [3]; in assay [4]; in assay [5]) was “Not Active” throughout. Besides, the IC50 entry in assay [6] is “Not Active”. For the same compound, the Ki result in assay [1], in assay [2], in assay [4], in assay [5] and in assay [6] was “Not Active” each time.
As to `O=C(O)COc1ccc(C(=O)c2cccs2)c(Cl)c1Cl`, the IC50 entry (on D(1A) dopamine receptor; in assay [1]; in assay [2]; in assay [3]; in assay [4]; in assay [5]) was “Not Active” in each case. Besides, the IC50 result in assay [6] is on record as “Not Active”. For the same compound, the Ki result in assay [1], in assay [2], in assay [4], in assay [5] and in assay [6] was “Not Active” in each case.
For the compound `C[C@@](Cc1ccc(O)c(O)c1)(NN)C(=O)O.O` [CARBIDOPA], the IC50 result (on D(1A) dopamine receptor; in assay [1]; in assay [2]; in assay [3]; in assay [4]; in assay [5]) was “Not Active” throughout. Moreover, the IC50 entry in assay [6] is “Not Active”. Also, the Ki entry in assay [1], in assay [2], in assay [4], in assay [5] and in assay [6] was “Not Active” each time.
Consider `O=C(O)CCCCC1CCSS1` (stereo not drawn) [LIPOIC ACID, ALPHA], for which the IC50 entry (at D(1A) dopamine receptor; in assay [1]; in assay [2]; in assay [3]; in assay [4]; in assay [5]) was “Not Active” throughout. For the same compound, in assay [6], the IC50 result is “Not Active”. Further, the Ki entry in assay [1], in assay [2], in assay [4], in assay [5] and in assay [6] was “Not Active” each time.
In the case of `C[C@]12C=CC(=O)C=C1CC[C@@H]1[C@@H]2C(=O)C[C@@]2(C)[C@H]1CC[C@]2(O)C(=O)CO` [PREDNISONE], the IC50 result (at D(1A) dopamine receptor; in assay [1]; in assay [2]; in assay [3]; in assay [4]; in assay [5]) was “Not Active” each time. Besides, the 50% inhibitory concentration (IC50) result in assay [6] was “Not Active”. Also, the inhibitory constant (Ki) entry in assay [1], in assay [2], in assay [4], in assay [5] and in assay [6] was “Not Active” in each case.
With `COC(=O)[C@H]1[C@H]2C[C@@H]3c4[nH]c5cc(OC)ccc5c4CCN3C[C@H]2C[C@@H](OC(=O)c2cc(OC)c(OC)c(OC)c2)[C@@H]1OC` [RESERPINE], the IC50 entry (at D(1A) dopamine receptor; in assay [1]; in assay [2]; in assay [3]; in assay [4]; in assay [5]) was “Not Active” each time. Also, the IC50 entry in assay [6] is listed as “Not Active”. The Ki entry in assay [1], in assay [2], in assay [4], in assay [5] and in assay [6] was “Not Active” each time.
Turning to `CC1CCC(NC(=O)N(CCCl)N=O)CC1` (stereo unspecified) [SEMUSTINE], the IC50 result is “Not Active” on D(1A) dopamine receptor; 1620 nM in assay [1] (read-out: IC50); “Not Active” in assay [2]; “Not Active” in assay [3]; “Not Active” in assay [4]; “Not Active” in assay [5]. Further, the IC50 entry in assay [6] was “Not Active”. Besides, the Ki in assay [1] (read-out: Ki) is 1080 nM; in assay [2], “Not Active”; in assay [4], “Not Active”; in assay [5] it was “Not Active”; in assay [6], “Not Active”.
For the compound `Nc1ccc(S(=O)(=O)NC(=O)c2ccccc2)cc1` [SULFABENZAMIDE], the IC50 entry (on D(1A) dopamine receptor; in assay [1]; in assay [2]; in assay [3]; in assay [4]; in assay [5]) was “Not Active” each time. Further, the concentration for half-maximal inhibition (IC50) result in assay [6] is recorded as “Not Active”. Also, the Ki result in assay [1], in assay [2], in assay [4], in assay [5] and in assay [6] was “Not Active” each time.
Take `O=c1[nH]c(=O)n(C2CCCO2)cc1F` (stereo unspecified) [TEGAFUR]: the IC50 entry (on D(1A) dopamine receptor; in assay [1]; in assay [2]; in assay [3]; in assay [4]; in assay [5]) was “Not Active” each time. Besides, the half-inhibitory concentration (IC50) result in assay [6] is reported as “Not Active”. Moreover, the Ki entry in assay [1], in assay [2], in assay [4], in assay [5] and in assay [6] was “Not Active” each time.
`CC(=N)S` [THIOACETAMIDE]: the half-maximal inhibitory concentration (IC50) result (on D(1A) dopamine receptor; in assay [1]; in assay [2]; in assay [3]; in assay [4]; in assay [5]) was “Not Active” throughout. For the same compound, the IC50 result in assay [6] was “Not Active”. The Ki entry in assay [1], in assay [2], in assay [4], in assay [5] and in assay [6] was “Not Active” in each case.
Regarding `Cc1ccc(C(=O)c2ccc(CC(=O)O)n2C)cc1` [TOLMETIN], the half-maximal inhibitory concentration (IC50) result (on D(1A) dopamine receptor; in assay [1]; in assay [2]; in assay [3]; in assay [4]; in assay [5]) was “Not Active” in each case. In addition, the IC50 entry in assay [6] is “Not Active”. Further, the inhibition constant Ki result in assay [1], in assay [2], in assay [4], in assay [5] and in assay [6] was “Not Active” each time.
On to `CC(=O)OCC(COC(C)=O)OC(C)=O` [TRIACETIN], for which the IC50 entry (at D(1A) dopamine receptor; in assay [1]; in assay [2]; in assay [3]; in assay [4]; in assay [5]) was “Not Active” each time. In assay [6], the IC50 result is reported as “Not Active”. In addition, the Ki entry in assay [1], in assay [2], in assay [4], in assay [5] and in assay [6] was “Not Active” each time.
`CN1CCN(CCCN2c3ccccc3Sc3ccc(C(F)(F)F)cc32)CC1` [TRIFLUOPERAZINE]: the IC50 result (on D(1A) dopamine receptor; in assay [1]; in assay [2]; in assay [3]; in assay [4]; in assay [5]) was “Not Active” throughout. For the same compound, in assay [6], the IC50 result is reported as “Not Active”. Further, the Ki result in assay [1], in assay [2], in assay [4], in assay [5] and in assay [6] was “Not Active” throughout.

A word on the IC50: it is the concentration that gives 50% inhibition. In general, Ki refers to the equilibrium dissociation constant of an inhibitor or competing ligand from its target.
